Experimental data published in patent US6156700A, “3-(1,2-Benzisothiazol- and isoxazol-5-yl)-2,4(1H,3H)-pyrimidinedione or thione and 3-(1,2-benzisothiazol- and isoxazol-5-yl)-4(3H)-pyrimidinone or thione herbicidal agents” (American Cyanmid Company, priority 1998, dated 2000).

Assays:
CYPIR Rice Flatsedge [1] = test: Postemergence weed control, flooded paddy (Table IV); format: in vivo, Cyperus iria; parameters: scale not given here
Method in brief: (§1)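 Weeds 3 to 5 cm tall and rice seedlings at the 1.5 to 2.5 leaf stage were flooded, water held 1.5 to 3 cm above soil. Compounds in 50/50 v/v aqueous/acetone went into the flood water at about 0.0313 to 0.500 kg/ha. Injury was rated visually three to four weeks later.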

[2] = tested on: SAGPY Arrowhead (Pygmaea); test: as above; format: in vivo, Sagittaria pygmaea; parameters: scale not given here
Method in brief: as §1

[3] = tested on: Ragweed, Common, Ambrosia artemisifolia; test: Preemergence herbicidal evaluation, AMBEL; format: in vivo, L.; conditions: 0.2500 kg/ha
Method in brief: (§2)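 Sow seeds in soil-filled cups; spray aqueous acetone compound solution at about 0.0156–0.500 kg/ha; keep on greenhouse benches with routine watering; after four to five weeks, rate visual injury 0–9 compared with control plants.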

ORYSAT Rice, Tebonnet [4] = test: Tolerance of transplanted rice to post-transplant application (Table III); format: in vivo, Oryza sativa; parameters: scale not given here; conditions: crop tolerance
Procedure: The tolerance of transplanted rice to post-transplanted herbicide applications is determined as follows: two ten-day-old rice seedlings (cv. Tebonnet) are transplanted into silt loam soil in 32 oz. plastic containers with a diameter of 10.5 cm and no drainage holes. After transplanting, the containers are flooded and the water level is maintained at 1.5 to 3 cm above the soil surface. Three days after transplanting, the flooded soil surface of the containers is treated with the selected aqueous/acetone 50/50 v/v mixture containing the test compounds to provide the equivalent of about 0.0313 to 0.500 kg/ha of active ingredient. The treated containers are placed on greenhouse benches, watered such that the water level is maintained as stated above, and cared for in accordance with conventional greenhouse procedures. Three to four weeks after treatment, the test is terminated and each container is examined and herbicidal effect rated according to the rating system provided in Example 185. The compounds evaluated are reported by compound number given in Example 185.

[5] = tested on: Wheat, Winter, cv Riband, Triticum aestivum; test: Postemergence herbicidal evaluation, TRZAWR; format: in vivo
Method in brief: (§3)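 Visual 0–9 rating vs untreated control (stand, vigor, malformation, size, chlorosis, overall appearance), scored 4–5 wk post-spray. Two-week-old seedlings; compound in 50/50 acetone/water + 0.5% TWEEN 20, ~0.0157–0.500 kg/ha, 40 psi nozzle.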

CYPSE Flatsedge [6] = test: Preemergence weed control, flooded paddy (Table III); format: in vivo, Cyperus serotinus; parameters: scale not given here
Procedure: (§4) Preemergence herbicidal activity under flooded paddy conditions is determined as follows: plant seeds or propagating organs are planted in the top 0.5 cm of silt loam soil in 32 oz. plastic containers with a diameter of 10.5 cm and no drainage holes. Water is added to these containers and maintained at 1.5 to 3 cm above the soil surface for the duration of the experiment. The test compounds are applied as aqueous/acetone mixtures 50/50 v/v pipetted directly into the flood water to give the equivalent of about 0.0313 to 0.500 kg/ha of active ingredient. The treated containers are placed on greenhouse benches and cared for in accordance with conventional greenhouse procedures. Three to four weeks after treatment, the test is terminated and each container is examined and herbicidal effect rated according to the rating system provided in Example 185. The compounds evaluated are reported by compound number given in Example 185.

Galium, Galium aparine = test: Postemergence herbicidal evaluation, GALAP; format: in vivo
Method in brief: as §3

[7] = tested on: Wheat, Winter, cv Riband, Triticum aestivum; test: Preemergence herbicidal evaluation, TRZAWR; format: in vivo; conditions: 0.2500 kg/ha
Method in brief: as §2

CYPSE Flatsedge [8] = test: Postemergence weed control, flooded paddy (Table IV); format: in vivo, Cyperus serotinus; parameters: scale not given here
Method in brief: as §1

ORYSAT Rice, Tebonnet [9] = test: Rice tolerance, flooded paddy (Table IV); format: in vivo, Oryza sativa; parameters: scale not given here; conditions: crop tolerance
Method in brief: as §1

MOOVA Monochoria = test: Postemergence weed control, flooded paddy (Table IV); format: in vivo, Monochoria vaginalis; parameters: scale not given here
Method in brief: as §1

[10] = tested on: ECHORC Watergrass (Calif.); test: as above; format: in vivo, Echinochloa oryzoides; parameters: scale not given here
Method in brief: as §1

[11] = tested on: Rice, Tebonnet, Oryza sativa; test: Postemergence herbicidal evaluation, ORYSAT; format: in vivo, (L.) Tebonnet
Method in brief: as §3

CYPIR Rice Flatsedge [12] = test: Preemergence weed control, flooded paddy (Table III); format: in vivo, Cyperus iria; parameters: scale not given here
Procedure: as §4

[13] = tested on: Barnyardgrass, Echinochloa crus-galli; test: Postemergence herbicidal evaluation, ECHCG; format: in vivo, (L.) Beau
Method in brief: as §3

SMILES | herbicidal effect rating (CYPIR Rice Flatsedge [1]; 0.1250 kg/ha) | herbicidal effect rating (CYPIR Rice Flatsedge [1]; 0.2500 kg/ha) | herbicidal effect rating (CYPIR Rice Flatsedge [1]; 0.5000 kg/ha) | herbicidal effect rating ([2]; 0.1250 kg/ha) | herbicidal effect rating ([2]; 0.2500 kg/ha) | herbicidal effect rating ([2]; 0.5000 kg/ha) | herbicide rating (0-9) [3] | herbicidal effect rating (ORYSAT Rice, Tebonnet [4]; 0.0625 kg/ha) | herbicidal effect rating (ORYSAT Rice, Tebonnet [4]; 0.1250 kg/ha) | herbicidal effect rating (ORYSAT Rice, Tebonnet [4]; 0.2500 kg/ha) | herbicidal effect rating (ORYSAT Rice, Tebonnet [4]; 0.5000 kg/ha) | herbicide rating (0-9) ([5]; 0.2500 kg/ha) | herbicidal effect rating (CYPSE Flatsedge [6]; 0.0625 kg/ha) | herbicidal effect rating (CYPSE Flatsedge [6]; 0.1250 kg/ha) | herbicidal effect rating (CYPSE Flatsedge [6]; 0.2500 kg/ha) | herbicidal effect rating (CYPSE Flatsedge [6]; 0.5000 kg/ha) | herbicide rating (0-9) (Galium, Galium aparine; 0.2500 kg/ha) | herbicide rating (0-9) [7] | herbicidal effect rating (CYPSE Flatsedge [8]; 0.5000 kg/ha) | herbicidal effect rating (ORYSAT Rice, Tebonnet [9]; 0.1250 kg/ha) | other results
COC(=O)COc1cc(C)c(C)cc1-c1nsc2ccc(-n3c(=O)cc(C(F)(F)F)n(C)c3=O)cc12 [Compound 12, Methyl {{6-{5-[3,6-dihydro-3-methyl-4-(trifluoromethyl)-2,6-dioxo-1(2H)-pyrimidinyl]-1,2-benzisothiazol-3-yl}-3,4-xylyl}oxy}acetate] | 9.0 | 9.0 | 9.0 | 0.0 | 4.0 | 9.0 | 9.0 | 7.0 | 7.0 | 8.0 | 9.0 | 9.0 | 7.0 | 8.0 | 7.0 | 7.0 | 9.0 | 5.0 | 2.0 | 7.0 | herbicidal effect rating (ORYSAT Rice, Tebonnet [4]; 0.0313 kg/ha): 4.0; herbicidal effect rating (CYPSE Flatsedge [6]; 0.0313 kg/ha): 6.0; herbicidal effect rating (ORYSAT Rice, Tebonnet [9]; 0.2500 kg/ha): 7.0; herbicidal effect rating (ORYSAT Rice, Tebonnet [9]; 0.5000 kg/ha): 7.0; herbicidal effect rating (MOOVA Monochoria; 0.1250 kg/ha): 9.0; herbicidal effect rating (MOOVA Monochoria; 0.2500 kg/ha): 9.0; herbicidal effect rating (MOOVA Monochoria; 0.5000 kg/ha): 9.0; herbicidal effect rating ([10]; 0.1250 kg/ha): 6.0; herbicidal effect rating ([10]; 0.2500 kg/ha): 9.0; herbicidal effect rating ([10]; 0.5000 kg/ha): 9.0; herbicide rating (0-9) ([11]; 0.2500 kg/ha): 9.0; herbicidal effect rating (CYPIR Rice Flatsedge [12]; 0.0313 kg/ha): 9.0; herbicidal effect rating (CYPIR Rice Flatsedge [12]; 0.0625 kg/ha): 9.0; herbicidal effect rating (CYPIR Rice Flatsedge [12]; 0.1250 kg/ha): 9.0; herbicidal effect rating (CYPIR Rice Flatsedge [12]; 0.2500 kg/ha): 9.0; herbicidal effect rating (CYPIR Rice Flatsedge [12]; 0.5000 kg/ha): 9.0; herbicide rating (0-9) ([13]; 0.2500 kg/ha): 9.0
Cc1nsc2ccc(-n3c(=O)cc(C(F)(F)F)n(C)c3=O)cc12 [Compound 6, 1-Methyl-3-(3-methyl-1,2-benzisothiazol-5-yl)-6-(trifluoromethyl)-2,4(1H,3H)-pyrimidinedione] | 9.0 | 9.0 | 9.0 | 6.0 | 8.0 | 9.0 | 9.0 | 8.0 | 8.0 | 8.0 | 8.0 | 5.0 | 4.0 | 7.0 | 9.0 | 9.0 | 9.0 | 8.0 | 9.0 | 9.0 | herbicide rating (0-9) ([5]; 0.0630 kg/ha): 1.5; herbicide rating (0-9) (Galium, Galium aparine; 0.0630 kg/ha): 5.0; herbicidal effect rating (CYPSE Flatsedge [8]; 0.1250 kg/ha): 7.0; herbicidal effect rating (CYPSE Flatsedge [8]; 0.2500 kg/ha): 7.0; herbicidal effect rating (ORYSAT Rice, Tebonnet [9]; 0.2500 kg/ha): 9.0; herbicidal effect rating (ORYSAT Rice, Tebonnet [9]; 0.5000 kg/ha): 9.0; herbicidal effect rating (MOOVA Monochoria; 0.1250 kg/ha): 9.0; herbicidal effect rating (MOOVA Monochoria; 0.2500 kg/ha): 9.0; herbicidal effect rating (MOOVA Monochoria; 0.5000 kg/ha): 9.0; herbicidal effect rating ([10]; 0.1250 kg/ha): 9.0; herbicidal effect rating ([10]; 0.2500 kg/ha): 9.0; herbicidal effect rating ([10]; 0.5000 kg/ha): 9.0; herbicide rating (0-9) ([11]; 0.0630 kg/ha): 1.8; herbicide rating (0-9) ([11]; 0.2500 kg/ha): 5.0; herbicidal effect rating (CYPIR Rice Flatsedge [12]; 0.0625 kg/ha): 9.0; herbicidal effect rating (CYPIR Rice Flatsedge [12]; 0.1250 kg/ha): 9.0; herbicidal effect rating (CYPIR Rice Flatsedge [12]; 0.2500 kg/ha): 9.0; herbicidal effect rating (CYPIR Rice Flatsedge [12]; 0.5000 kg/ha): 9.0; herbicide rating (0-9) ([13]; 0.0630 kg/ha): 1.5; herbicide rating (0-9) ([13]; 0.2500 kg/ha): 6.0
